This is an account of results in ChEMBL document CHEMBL1921670, “Discovery and optimization of indole and 7-azaindoles as Rho kinase (ROCK) inhibitors (part-II)” (Bioorg Med Chem Lett, 2011).

Molecules are shown by their SMILES.

Sequence of Rho-associated protein kinase 2 (O75116 whole entry): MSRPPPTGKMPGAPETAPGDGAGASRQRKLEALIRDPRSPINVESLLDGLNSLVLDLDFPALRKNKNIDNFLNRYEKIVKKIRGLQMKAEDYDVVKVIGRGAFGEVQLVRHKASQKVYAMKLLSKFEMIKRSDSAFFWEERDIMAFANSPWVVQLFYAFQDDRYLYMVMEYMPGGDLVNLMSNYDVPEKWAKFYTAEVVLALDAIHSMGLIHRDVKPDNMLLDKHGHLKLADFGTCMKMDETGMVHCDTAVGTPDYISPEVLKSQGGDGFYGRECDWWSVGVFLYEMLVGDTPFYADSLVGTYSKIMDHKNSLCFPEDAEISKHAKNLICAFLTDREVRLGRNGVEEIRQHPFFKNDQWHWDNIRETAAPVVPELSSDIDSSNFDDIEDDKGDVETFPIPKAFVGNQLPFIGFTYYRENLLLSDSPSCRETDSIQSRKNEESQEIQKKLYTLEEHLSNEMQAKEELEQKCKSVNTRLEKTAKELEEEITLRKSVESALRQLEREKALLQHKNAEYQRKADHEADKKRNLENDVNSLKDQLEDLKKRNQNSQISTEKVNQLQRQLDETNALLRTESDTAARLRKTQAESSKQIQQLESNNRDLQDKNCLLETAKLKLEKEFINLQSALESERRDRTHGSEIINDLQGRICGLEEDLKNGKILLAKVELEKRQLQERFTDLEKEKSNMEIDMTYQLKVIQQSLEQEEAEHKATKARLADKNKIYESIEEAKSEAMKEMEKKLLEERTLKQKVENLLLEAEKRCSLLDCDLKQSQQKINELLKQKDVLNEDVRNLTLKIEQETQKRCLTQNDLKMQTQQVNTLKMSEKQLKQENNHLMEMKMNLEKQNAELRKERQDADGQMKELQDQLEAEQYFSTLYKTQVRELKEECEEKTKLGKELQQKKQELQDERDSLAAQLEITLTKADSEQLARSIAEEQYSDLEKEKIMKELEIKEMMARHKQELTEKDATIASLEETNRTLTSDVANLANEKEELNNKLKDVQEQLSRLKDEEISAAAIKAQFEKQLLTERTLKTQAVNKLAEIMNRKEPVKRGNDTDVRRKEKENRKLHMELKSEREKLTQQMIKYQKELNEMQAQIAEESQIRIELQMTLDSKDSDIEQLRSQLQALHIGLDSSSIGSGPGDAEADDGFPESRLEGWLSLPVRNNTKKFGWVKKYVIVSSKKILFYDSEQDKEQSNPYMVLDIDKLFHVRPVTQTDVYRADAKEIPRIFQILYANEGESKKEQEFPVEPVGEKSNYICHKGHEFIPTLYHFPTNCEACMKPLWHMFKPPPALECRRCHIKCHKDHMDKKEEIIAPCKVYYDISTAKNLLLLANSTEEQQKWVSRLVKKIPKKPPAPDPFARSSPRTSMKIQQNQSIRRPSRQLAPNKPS
Sequence of Rho-associated protein kinase 1 (Q13464 whole entry): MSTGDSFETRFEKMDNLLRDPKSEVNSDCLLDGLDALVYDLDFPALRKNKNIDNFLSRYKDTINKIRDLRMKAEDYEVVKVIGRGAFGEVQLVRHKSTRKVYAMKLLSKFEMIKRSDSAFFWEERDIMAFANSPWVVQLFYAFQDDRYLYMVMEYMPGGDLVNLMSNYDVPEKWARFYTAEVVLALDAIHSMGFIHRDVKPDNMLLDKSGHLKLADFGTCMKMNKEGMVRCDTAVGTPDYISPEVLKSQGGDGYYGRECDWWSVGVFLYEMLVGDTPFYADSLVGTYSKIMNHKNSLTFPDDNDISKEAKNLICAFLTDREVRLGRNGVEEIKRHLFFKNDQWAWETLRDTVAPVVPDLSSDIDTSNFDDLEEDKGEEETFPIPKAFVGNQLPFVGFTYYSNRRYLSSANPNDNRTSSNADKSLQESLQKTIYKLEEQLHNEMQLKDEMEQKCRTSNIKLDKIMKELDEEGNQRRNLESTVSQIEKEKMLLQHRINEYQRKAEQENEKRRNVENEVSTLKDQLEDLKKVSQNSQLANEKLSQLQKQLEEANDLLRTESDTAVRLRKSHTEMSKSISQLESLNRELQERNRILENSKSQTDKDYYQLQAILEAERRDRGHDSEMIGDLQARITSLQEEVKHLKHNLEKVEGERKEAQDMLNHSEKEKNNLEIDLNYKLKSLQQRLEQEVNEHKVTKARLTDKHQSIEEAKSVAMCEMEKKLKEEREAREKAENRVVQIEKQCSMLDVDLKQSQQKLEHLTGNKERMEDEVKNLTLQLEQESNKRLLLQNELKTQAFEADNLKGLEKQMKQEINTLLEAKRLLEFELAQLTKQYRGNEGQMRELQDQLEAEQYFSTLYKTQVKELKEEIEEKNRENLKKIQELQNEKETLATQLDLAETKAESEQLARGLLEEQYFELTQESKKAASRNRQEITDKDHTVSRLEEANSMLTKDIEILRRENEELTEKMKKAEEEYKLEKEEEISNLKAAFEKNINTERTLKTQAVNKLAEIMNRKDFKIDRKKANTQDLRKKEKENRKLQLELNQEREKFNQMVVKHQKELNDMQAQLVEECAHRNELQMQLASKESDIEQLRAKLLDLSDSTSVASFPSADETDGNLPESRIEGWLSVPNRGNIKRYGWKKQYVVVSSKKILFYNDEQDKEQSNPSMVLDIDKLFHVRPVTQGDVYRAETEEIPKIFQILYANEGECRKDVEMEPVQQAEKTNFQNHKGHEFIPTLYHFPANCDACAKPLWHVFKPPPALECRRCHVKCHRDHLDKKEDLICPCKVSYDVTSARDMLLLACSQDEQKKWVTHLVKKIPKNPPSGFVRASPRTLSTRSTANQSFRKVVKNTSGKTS
Sequence of CYP3A4 (P08684 whole entry): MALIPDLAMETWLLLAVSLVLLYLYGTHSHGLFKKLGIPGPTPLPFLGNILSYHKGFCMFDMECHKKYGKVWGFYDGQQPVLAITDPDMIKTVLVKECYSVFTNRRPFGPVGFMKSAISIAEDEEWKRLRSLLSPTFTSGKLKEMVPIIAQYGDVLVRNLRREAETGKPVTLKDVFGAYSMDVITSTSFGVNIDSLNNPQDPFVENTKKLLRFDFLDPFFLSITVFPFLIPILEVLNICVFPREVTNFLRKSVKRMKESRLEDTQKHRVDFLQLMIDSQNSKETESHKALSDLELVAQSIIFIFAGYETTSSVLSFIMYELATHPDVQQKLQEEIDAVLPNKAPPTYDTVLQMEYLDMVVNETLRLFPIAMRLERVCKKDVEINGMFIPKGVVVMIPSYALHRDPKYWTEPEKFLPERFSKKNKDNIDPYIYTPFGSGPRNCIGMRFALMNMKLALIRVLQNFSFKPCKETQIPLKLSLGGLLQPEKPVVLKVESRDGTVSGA

One series deals with CYP2D6 (Homo sapiens, UniProt P10635). The series is described as follows: Inhibition of CYP2D6 at 10 uM. Format: ADME.
Sequence of CYP2D6 (P10635 whole entry): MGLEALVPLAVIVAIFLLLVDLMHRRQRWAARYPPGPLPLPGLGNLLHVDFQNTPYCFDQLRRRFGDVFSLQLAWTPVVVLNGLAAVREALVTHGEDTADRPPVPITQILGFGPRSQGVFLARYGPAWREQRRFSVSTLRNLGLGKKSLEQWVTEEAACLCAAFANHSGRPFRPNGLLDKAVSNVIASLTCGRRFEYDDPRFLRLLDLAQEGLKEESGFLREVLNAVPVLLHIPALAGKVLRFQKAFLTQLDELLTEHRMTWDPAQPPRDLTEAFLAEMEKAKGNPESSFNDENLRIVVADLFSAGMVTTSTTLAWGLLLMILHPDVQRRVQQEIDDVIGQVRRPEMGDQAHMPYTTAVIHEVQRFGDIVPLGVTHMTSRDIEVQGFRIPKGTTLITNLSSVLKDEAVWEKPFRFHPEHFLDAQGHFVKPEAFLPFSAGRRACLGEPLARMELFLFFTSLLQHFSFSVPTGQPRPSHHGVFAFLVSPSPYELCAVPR
For `COc1cccc(CNC(=O)c2[nH]c3cc(-c4cn[nH]c4)ccc3c2CN2CCCNCC2)c1`, the inhibition (as a rule, the share of the control response that was lost under treatment) at 10 µM is 81%.

In the next series the target is CYP2C9 (Homo sapiens, UniProt P11712). The series is described as follows: Inhibition of CYP2C9 at 10 uM. It counts as ADME.
Sequence of CYP2C9 (P11712 whole entry): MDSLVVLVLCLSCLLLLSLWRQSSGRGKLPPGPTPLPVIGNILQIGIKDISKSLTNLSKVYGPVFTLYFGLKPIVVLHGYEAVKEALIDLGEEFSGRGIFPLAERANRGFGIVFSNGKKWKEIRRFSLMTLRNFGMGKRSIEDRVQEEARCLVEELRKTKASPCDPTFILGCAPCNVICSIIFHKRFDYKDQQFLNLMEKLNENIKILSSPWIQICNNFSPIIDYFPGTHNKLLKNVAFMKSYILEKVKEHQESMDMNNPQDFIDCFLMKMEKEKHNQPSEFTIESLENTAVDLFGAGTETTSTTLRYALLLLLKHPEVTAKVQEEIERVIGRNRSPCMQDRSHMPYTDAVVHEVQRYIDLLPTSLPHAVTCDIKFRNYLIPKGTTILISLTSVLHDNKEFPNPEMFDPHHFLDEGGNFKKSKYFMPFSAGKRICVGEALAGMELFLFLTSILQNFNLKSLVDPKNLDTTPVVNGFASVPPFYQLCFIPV
Regarding `COc1cccc(CNC(=O)c2[nH]c3cc(-c4cn[nH]c4)ccc3c2CN2CCCNCC2)c1`, the inhibition at 10 µM was determined as 53%.

A further series has as its target CYP3A4 (Homo sapiens, UniProt P08684). The series is described as follows: Inhibition of CYP3A4 at 10 uM. Format: ADME.
`COc1cccc(CNC(=O)c2[nH]c3cc(-c4cn[nH]c4)ccc3c2CN2CCCNCC2)c1`: the inhibition at 10 µM was 51%.

Tested on in a further series: not listed separately
The series is described as follows: Inhibition of PKA.
On to `COc1cccc(CN(C)C(=O)c2cc3ccc(-c4cn[nH]c4)cc3n2C)c1`, for which the half-maximal inhibitory concentration (IC50) (usually the concentration at which inhibition is half-maximal) was more than 20000 nM.

For `COc1cccc(CNC(=O)c2cc3ccc(-c4cn[nH]c4)cc3n2CCN(C)C)c1`, the half-maximal inhibitory concentration (IC50) is more than 20000 nM.

`COc1cccc(CN(CC[N+]2(C)CCCC2)C(=O)c2cc3ccc(-c4cn[nH]c4)nc3n2C)c1` gave an IC50 of 3700 nM.

`COc1cccc(CN(CCCN2CCN(C)CC2)C(=O)c2c[nH]c3nc(-c4cn[nH]c4)ccc23)c1` displayed a concentration for half-maximal inhibition (IC50) of 3700 nM.

As for `COc1cccc(CNC(=O)c2c[nH]c3nc(-c4cn[nH]c4)ccc23)c1`, the IC50 came out at 8000 nM.

As for `COc1cccc(CNC(=O)c2cc3ccc(-c4cn[nH]c4)cc3n2CCCO)c1`, the IC50 was determined as 1800 nM.

The compound `COc1cccc(CN(C)C(=O)c2cc3ccc(-c4cn[nH]c4)cc3n2CCN(C)C)c1` registered an IC50 of more than 20000 nM.

On to `CCN(Cc1cccc(OC)c1)C(=O)c1c[nH]c2nc(-c3cn[nH]c3)ccc12`, for which the IC50 turned out to be 5000 nM.

`COc1cccc(CN(CCN2CCCC2)C(=O)c2cc3ccc(-c4cn[nH]c4)nc3n2C)c1` showed an IC50 of 2200 nM.

On to `COc1cccc(CN(C)C(=O)c2cn(CCN(C)C)c3cc(-c4cn[nH]c4)ccc23)c1`, for which the IC50 was more than 20000 nM.

As to `COc1cccc(CN(CCCN(C)C)C(=O)c2cc3ccc(-c4cn[nH]c4)cc3[nH]2)c1`, the IC50 came out at 1600 nM.

Consider `COc1cccc(CNC(=O)c2[nH]c3cc(-c4cn[nH]c4)ccc3c2CN2CCCNCC2)c1`, for which the IC50 turned out to be 385 nM.

`COc1cccc(CNC(=O)c2cc3ccc(-c4cn[nH]c4)nc3n2CC2CC2)c1` showed an IC50 of 5000 nM.

`COc1cccc(CN(CCN(C)C)C(=O)c2cn(CCN3CCCC3)c3cc(-c4cn[nH]c4)ccc23)c1` registered an IC50 of more than 20000 nM.

A further series concerns the target T1, CYP1A2 (Homo sapiens, UniProt P05177).
T1 sequence (P05177 whole entry): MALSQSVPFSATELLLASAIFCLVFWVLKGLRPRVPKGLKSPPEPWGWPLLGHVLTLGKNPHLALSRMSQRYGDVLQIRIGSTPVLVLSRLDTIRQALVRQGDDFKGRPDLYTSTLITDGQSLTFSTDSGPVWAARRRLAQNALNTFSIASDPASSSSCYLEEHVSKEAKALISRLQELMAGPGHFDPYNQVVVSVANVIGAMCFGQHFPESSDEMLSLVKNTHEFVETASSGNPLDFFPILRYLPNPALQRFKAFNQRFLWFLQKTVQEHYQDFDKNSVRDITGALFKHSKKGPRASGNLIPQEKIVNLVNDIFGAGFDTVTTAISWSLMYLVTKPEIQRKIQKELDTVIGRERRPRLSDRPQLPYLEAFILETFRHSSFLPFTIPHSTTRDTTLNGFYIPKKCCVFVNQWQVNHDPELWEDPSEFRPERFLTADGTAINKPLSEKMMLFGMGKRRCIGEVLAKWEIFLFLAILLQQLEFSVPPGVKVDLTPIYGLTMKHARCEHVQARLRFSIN
As to the kind of experiment: Inhibition of CYP1A2 at 10 uM. Format: ADME.
The compound `COc1cccc(CNC(=O)c2[nH]c3cc(-c4cn[nH]c4)ccc3c2CN2CCCNCC2)c1` gave an inhibition at 10 µM of 41%.

The next series concerns the target Rho-associated protein kinase 2 (Homo sapiens, UniProt O75116). As to the kind of experiment: Inhibition of ROCK2.
Consider `COc1cccc(CN(C)C(=O)c2cc3ccc(-c4cn[nH]c4)cc3n2C)c1`, for which the IC50 worked out at 200 nM.

`COc1cccc(CNC(=O)c2cc3ccc(-c4cn[nH]c4)cc3n2CCN(C)C)c1` had an IC50 of 310 nM.

As to `COc1cccc(CN(CC[N+]2(C)CCCC2)C(=O)c2cc3ccc(-c4cn[nH]c4)nc3n2C)c1`, the IC50 worked out at 1900 nM.

With `COc1cccc(CN(CCCN2CCN(C)CC2)C(=O)c2c[nH]c3nc(-c4cn[nH]c4)ccc23)c1`, it took 62 nM to reach half-maximal inhibition (IC50).

Compound `COc1cccc(CNC(=O)c2cc3ccc(-c4cn[nH]c4)cc3n2CCCO)c1` returned an IC50 of 24 nM.

With `COc1cccc(CN(C)C(=O)c2cc3ccc(-c4cn[nH]c4)cc3n2CCN(C)C)c1`, the IC50 stood at 2300 nM.

Consider `CCN(Cc1cccc(OC)c1)C(=O)c1c[nH]c2nc(-c3cn[nH]c3)ccc12`, for which the IC50 came out at 19 nM.

Regarding `COc1cccc(CNC(=O)c2cc3ccc(-c4cn[nH]c4)nc3n2Cc2cccc(OC)c2)c1`, half-maximal inhibition (IC50) required 4400 nM.

The compound `COc1cccc(CN(CCN2CCCC2)C(=O)c2cc3ccc(-c4cn[nH]c4)nc3n2C)c1` displayed an IC50 of 220 nM.

Consider `COc1cccc(CN(C)C(=O)c2cn(CCN(C)C)c3cc(-c4cn[nH]c4)ccc23)c1`, for which the IC50 is 9 nM.

For the compound `COc1cccc(CN(CCCN(C)C)C(=O)c2cc3ccc(-c4cn[nH]c4)cc3[nH]2)c1`, the IC50 came out at 10 nM.

`COc1cccc(CNC(=O)c2[nH]c3cc(-c4cn[nH]c4)ccc3c2CN2CCCNCC2)c1` returned a half-maximal inhibitory concentration (IC50) of less than 1 nM.

Regarding `COc1cccc(CNC(=O)c2cc3ccc(-c4cn[nH]c4)nc3n2CC2CC2)c1`, the IC50 is 150 nM.

With `COc1cccc(CN(CCN(C)C)C(=O)c2cn(CCN3CCCC3)c3cc(-c4cn[nH]c4)ccc23)c1`, the IC50 was found to be 2800 nM.

The next series has as its target Rho-associated protein kinase 1 (Homo sapiens, UniProt Q13464). The series is described as follows: Inhibition of ROCK1.
`COc1cccc(CN(C)C(=O)c2cc3ccc(-c4cn[nH]c4)cc3n2C)c1` displayed an IC50 of 1100 nM.

Compound `COc1cccc(CNC(=O)c2cc3ccc(-c4cn[nH]c4)cc3n2CCN(C)C)c1` returned a 50% inhibitory concentration (IC50) of 710 nM.

In the case of `COc1cccc(CN(CC[N+]2(C)CCCC2)C(=O)c2cc3ccc(-c4cn[nH]c4)nc3n2C)c1`, half-maximal inhibition (IC50) was put at 6600 nM.

For the compound `COc1cccc(CN(CCCN2CCN(C)CC2)C(=O)c2c[nH]c3nc(-c4cn[nH]c4)ccc23)c1`, it took 260 nM to reach half-maximal inhibition (IC50).

Take `COc1cccc(CNC(=O)c2cc3ccc(-c4cn[nH]c4)cc3n2CCCO)c1`: it took 88 nM to reach half-maximal inhibition (IC50).

For the compound `COc1cccc(CN(C)C(=O)c2cc3ccc(-c4cn[nH]c4)cc3n2CCN(C)C)c1`, the IC50 is 6900 nM.

The compound `CCN(Cc1cccc(OC)c1)C(=O)c1c[nH]c2nc(-c3cn[nH]c3)ccc12` yielded an IC50 of 76 nM.

With `COc1cccc(CNC(=O)c2cc3ccc(-c4cn[nH]c4)nc3n2Cc2cccc(OC)c2)c1`, the IC50 was more than 20000 nM.

As for `COc1cccc(CN(CCN2CCCC2)C(=O)c2cc3ccc(-c4cn[nH]c4)nc3n2C)c1`, half-maximal inhibition (IC50) was put at 1000 nM.

On to `COc1cccc(CN(C)C(=O)c2cn(CCN(C)C)c3cc(-c4cn[nH]c4)ccc23)c1`, for which half-maximal inhibition (IC50) was put at 110 nM.

The compound `COc1cccc(CN(CCCN(C)C)C(=O)c2cc3ccc(-c4cn[nH]c4)cc3[nH]2)c1` registered an IC50 of 46 nM.

As for `COc1cccc(CNC(=O)c2[nH]c3cc(-c4cn[nH]c4)ccc3c2CN2CCCNCC2)c1`, inhibition was half-maximal at 8 nM (IC50).

As to `COc1cccc(CNC(=O)c2cc3ccc(-c4cn[nH]c4)nc3n2CC2CC2)c1`, 280 nM corresponded to half-maximal inhibition (IC50).

The compound `COc1cccc(CN(CCN(C)C)C(=O)c2cn(CCN3CCCC3)c3cc(-c4cn[nH]c4)ccc23)c1` displayed a half-inhibitory concentration (IC50) of 8900 nM.

Tested on in another series: not listed separately
The series is described as follows: Half life in human liver microsomes. Format: ADME, Microsome. (In general: Microsomes from liver hold many membrane-bound enzymes, among them those of drug oxidation.)
On to `COc1cccc(CNC(=O)c2[nH]c3cc(-c4cn[nH]c4)ccc3c2CN2CCCNCC2)c1`, for which the half-life (commonly how long it takes for the measured level to halve) came out at 50 min.
